Data as given in publication PMC7333658, “Identification and Quantification of Novel Major Metabolites of the Steroidal Aromatase Inhibitor, Exemestane” (Drug Metabolism and Disposition, 2018).
“And” between values parts separate entries of the source, which are not always exact repeats. Equal values may be shown once.

Legend:
[1] = UPLC-MS/MS quantification of EXE and its metabolites in plasma of subjects taking EXE; assay type: in vivo, human; conditions: for Plasma Percentage of TEM (Mean ± S.E.): TEM = EXE + 17β-DHE + 17β-DHE-Gluc + 6-EXE-cys + 6-DHE-cys, calculated per subject, then mean of 132; for Plasma concentration, Mean ± S.E. / Plasma concentration, Range: n = 132 subjects; for Plasma concentration, Mean ± S.E.: 25 mg EXE daily orally for at least 28 days, sampled 4-6 hours after pill; for Plasma concentration, Range: 25 mg EXE daily orally, 4-6 hours after pill
Description: (§1) One hundred and thirty-two postmenopausal breast cancer patients (one Hispanic, two African Americans, two Asians, and 127 Caucasians; age range: 35–89 years) with ER+ breast tumors were recruited into this study from the Breast Oncology Clinic at the Penn State Hershey Cancer Institute. Approval was obtained from the Institutional Review Board at Penn State University with informed consent obtained from all subjects. Subjects took a single pill (25 mg) of EXE daily (orally) for at least 28 consecutive days and provided blood (10 ml) and urine (up to 50 ml) specimens between 4 and 6 hours after pill ingestion as described previously ([Luo et al., 2018]). Blood was separated by centrifugation at 1300g for 15 minutes at room temperature. Aliquoted plasma and buffy coat fractions of blood samples and aliquoted urine samples were stored at −80°C until analysis. As a control for EXE metabolism, specimens obtained from women not taking EXE who were recruited into other studies at Penn State University College of Medicine (Hershey, PA; n = 10) were also examined to exclude false positives ([Ashmore et al., 2013]).
To quantify in vivo levels of EXE and its metabolites, the sample preparation method was modified from that described earlier for metabolite identification. For EXE metabolite analysis in plasma, a 2.5-µl aliquot of each plasma sample was first spiked with 2.5 µl of a mixture of deuterium-labeled internal standards in methanol [D3-EXE (0.17 μM), D3-17β-DHE (1.7 μM), 17β-OH-EXE-d3-17-O-β-D-glucuronide (0.52 μM), D3-6-EXE-cys (0.06 μM), and D3-6-17β-DHE-cys (0.25 μM)]. Twenty microliters of pure methanol was then added to extract EXE and its metabolites and to precipitate proteins. After vortexing and subsequent centrifugation at 16,100g for 10 minutes at 4°C, 15 µl of the supernatant was transferred to a sample vial and mixed with 15 µl of water prior to analysis by UPLC-MS.
(§2) For the simultaneous quantification of EXE, 17β-DHE, 17β-DHE-Gluc, 6-EXE-cys, and 6-17β-DHE-cys, urine and plasma samples were prepared as described earlier. Using the same UPLC-MS system described earlier, UPLC was performed with solvent A (5 mM ammonium formate and 0.01% formic acid in water) and solvent B (100% acetonitrile) using the following conditions for both urine and plasma specimens: 0–1.5 minutes at 25% solvent B, a linear gradient to 52% solvent B for 1.5–2.5 minutes, 2.5–4.5 minutes at 52% solvent B, a linear gradient to 95% solvent B from 4.5 to 5 minutes, 5–9.5 minutes at 95% solvent B, followed by a linear gradient to initial conditions of 25% solvent B from 9.5 to 10 minutes. This was followed by a 1-minute run at 25% solvent B to equilibrate the column to initial conditions before the next sample injection. The flow rate was 0.4 ml/min from 0 to 5 minutes, 0.8 ml/min from 5 to 9.5 minutes, and back to 0.4 ml/min from 9.5 to 10 minutes. The injection volume of each prepared urine and plasma sample was 5 µl. The column temperature was 35°C. The Waters XEVO G2-S QTOF MS was operated in tandem mass spectrometry (MS/MS) mode, with the electrospray ionization probe operated in the positive-ion mode and a capillary voltage at 0.6 kV. The cone and desolvation gas flow rates were maintained at 50 and 800 l/h, respectively, and the collision gas flow rate was 0.1 l/h. The source and desolvation gas temperatures were 120°C and 500°C, respectively, and the dwell time for each ion was 300 ms.
(§3) The limits of quantification for EXE, 17β-DHE, 17β-DHE-Gluc, 6-EXE-cys, and 6-17β-DHE-cys were 2.1, 1.6, 1.2, 0.7, and 7.2 nM in plasma, respectively, and 2.1, 1.6, 6.3, 1.5, and 7.2 nM in urine, respectively. Standard curves were constructed by plotting the ratio of analyte peak area to peak area of the corresponding internal standard (described earlier) versus concentration of analyte standard. The concentrations of stock standards were 1000 ppm. […]

[2] = UPLC-MS/MS quantification of EXE and its metabolites in urine of subjects taking EXE; assay type: in vivo, human; conditions: for Urine Percentage of TEM (Mean ± S.E.): TEM = EXE + 17β-DHE + 17β-DHE-Gluc + 6-EXE-cys + 6-DHE-cys, calculated per subject, then mean of 132; for Urine concentration, Mean ± S.E. / Urine concentration, Range: n = 132 subjects; for Urine concentration, Mean ± S.E.: 25 mg EXE daily orally for at least 28 days, sampled 4-6 hours after pill; for Urine concentration, Range: 25 mg EXE daily orally, 4-6 hours after pill
Description: as §1
For EXE metabolite analysis in urine, a 2.5-µl aliquot of each urine sample was first spiked with 2.5 µl of the same deuterium-labeled internal standard mixture described earlier. Ten microliters of 75% methanol was then added to extract EXE and its metabolites. After vortexing and subsequent centrifugation at 16,100g for 10 minutes at 4°C, 10 µl of the supernatant was transferred to a sample vial and mixed with 5 µl of water prior to analysis by UPLC-MS.
as §2
as §3, with “ppm. A serial dilution of standards at concentrations ranging from 1.6 nM to 1.7 μM, 1.6 nM to 1.7 μM, 1.0 nM to 2.1 μM, 0.7 nM to 12 μM, and 4.6 nM to 2.4 μM was used to establish standard curves for EXE, 17β-DHE, 17β-DHE-Gluc, 6-EXE-cys, and 6-17β-DHE-cys, respectively.” for “ppm.”

[3] = in vivo; cited from earlier work
[4] = ref Luo et al., 2018, cited from earlier work

| SMILES | Urine concentration range as printed in the discussion ([2]; female, human, in vivo) | Plasma Percentage of TEM (Mean ± S.E.) ([1]; plasma) | Plasma concentration, Mean ± S.E. ([1]; plasma) | Plasma concentration, Range ([1]; plasma) | Urine Percentage of TEM (Mean ± S.E.) ([2]; urine) | Urine concentration, Mean ± S.E. ([2]; urine) | Urine concentration, Range ([2]; urine) | further results |
| --- | --- | --- | --- | --- | --- | --- | --- | --- |
| C[C@]12C=CC(=O)C=C1C(CSC[C@H](N)C(=O)O)C[C@@H]1[C@@H]2CC[C@]2(C)C(=O)CC[C@@H]12 (single isomer, unassigned) [6-EXE-cys, 6-methylcysteinylandrosta-1,4-diene-3,17-dione] | 3.3 to 50000 pM |  |  |  |  |  |  | Share of the total mean cysteine conjugate levels in plasma ([1]; female, human, in vivo): 79%; Share of the total mean cysteine conjugate levels in urine ([2]; female, human, in vivo): 77% |
| C[C@]12CC[C@H]3[C@@H](CC(CSC[C@H](N)C(=O)O)C4=CC(=O)C=C[C@@]43C)[C@@H]1CC[C@@H]2O (stereo partly drawn) [6-17β-DHE-cys, 6-methylcysteinylandrosta-1,4-diene-17β-hydroxy-3-one] | 3.3 to 10000 pM |  |  |  |  |  |  |  |
| CSc1ncnc2c1ncn2[C@@H]1O[C@H](CO)[C@@H](O)[C@H]1O [6-methylmercaptopurine riboside] |  |  |  |  |  |  |  | Fold lower levels in GSTM1-null genotype than in carriers of one or two copies of GSTM1 [3]: 2 fold |
| C=C1CC2C(CCC3(C)C(O)CCC23)C2(C)C=CC(=O)C=C12 (stereo not drawn) [17β-DHE, 17β-dihydro-EXE] |  | 12% and 12 ± 1.2% | 2.5 nM and 2.5 ± 0.19 nM | 0.11 to 14 nM | 0.14% and 0.14 ± 0.025% | 0.0066 nmol/mg creatinine and 0.0066 ± 0.0012 nmol/mg creatinine | 0–0.099 nmol/mg creatinine | Fold lower average percentage of TEM than 17β-DHE-Gluc ([1]; plasma): 3 fold; Increase in plasma level with increasing numbers of the UGT2B17 deletion allele ([4]; same women taking EXE): 1.3 fold |
| C=C1C[C@H]2[C@@H]3CC[C@H](O[C@@H]4O[C@H](C(=O)O)[C@@H](O)[C@H](O)[C@H]4O)[C@@]3(C)CC[C@@H]2[C@@]2(C)C=CC(=O)C=C12 [17β-DHE-Gluc, 17β-hydroxy-EXE-17-O-β-D-glucuronide] |  | 36% and 36 ± 1.8% | 30 nM and 30 ± 4.6 nM | 0.32 to 358 nM | 21% and 21 ± 1.6% | 1.4 nmol/mg creatinine and 1.4 ± 0.37 nmol/mg creatinine | 0.0068–45 nmol/mg creatinine | Ratio of mean combined cysteine conjugates (6-EXE-cys plus 6-17β-DHE-cys) to 17β-DHE-Gluc in urine ([2]; urine, 17β-DHE-Gluc is the lower): 5.5 fold; Decrease in plasma level with increasing numbers of the UGT2B17 deletion allele ([4]; women taking EXE): up to 29 fold |
| C=C1C[C@@H]2[C@H](CC[C@]3(C)C(=O)CC[C@@H]23)[C@@]2(C)C=CC(=O)C=C12 [EXE, Exemestane] |  | 17% and 17 ± 0.91% | 14 nM and 14 ± 1.7 nM | 0 to 105 nM | 1.7% and 1.7 ± 0.20% | 0.21 ± 0.045 nmol/mg creatinine | 0–3.2 nmol/mg creatinine |  |
